For experiment [1], the system named is L6-myotubes. As to the kind of experiment: Glucose uptake in differentiated L6-myotubes (3H-2-deoxyglucose), compared to isoproterenol. In kind it is cell-based. Conditions: agonist 1×10^−5 M, 50 nM 3H-2-deoxyglucose; for Emax at 10 µM: read-out: Biological example 1: glucose uptake, activity compared to that of isoproterenol. A digest of the protocol: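 Serum-starved differentiated L6 myotubes stimulated with agonist at 1×10^−5 M for 1 h 40 min, re-dosed in glucose-free medium for 20 min, then given 50 nM ^3H-2-deoxyglucose for 10 min. Uptake read by β-counting of NaOH lysates; activity expressed relative to isoproterenol.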

For experiment [2], the system named is L6-myotubes. Kind of experiment: Measurement of intracellular cAMP levels in differentiated L6 cells (alpha screen cAMP kit), compared to isoproterenol. In kind it is cell-based. Particulars: Rattus norvegicus, L6, 0.25 h, agonist 1×10^−5 M, 15 min, read-out: Biological example 2: intracellular cAMP levels, activity compared to that of isoproterenol. A digest of the protocol: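 L6 myoblasts were differentiated into myotubes over 7 days in 2% FBS, then serum-starved overnight. Agonist at 1×10^−5 M final was applied for 15 min in HBSS with 1% BSA, 5 mM HEPES and 1 mM IBMX, pH 7.4. After ethanol extraction and lysis, cAMP was quantified by AlphaScreen, with activity expressed relative to isoproterenol.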

Counter-ions that a name gives are not always drawn.

In the case of `CC(C)(C[C@H]1CC[C@H](N)CC1)NC[C@@H](O)c1cccc(C#N)n1` [Example 130, 6-((R)-2-((1-((1r,4R)-4-Aminocyclohexyl)-2-methylpropan-2-yl)amino)-1-hydroxyethyl)picolinonitrile trihydrochloride], the “Biological example 1: glucose uptake, activity compared to that of isoproterenol” value in the experiment on L6-myotubes [1] is listed as “+ +”. For the same compound, the Emax at 10 µM with L6-myotubes [2] is less than 25%.
For the compound `COC(=O)[C@H]1CC[C@H](C(C)(C)NC[C@H](O)c2cccc(F)c2)CC1` [Example 99, Methyl (1R,4r)-4-(2-(((R)-2-(3-fluorophenyl)-2-hydroxyethyl)amino)propan-2-yl)cyclohexane-1-carboxylate], in the experiment on L6-myotubes [1], the “Biological example 1: glucose uptake, activity compared to that of isoproterenol” value is “+ + +”. In addition, the Emax at 10 µM in the experiment on L6-myotubes [2] is less than 25%.
The corresponding values for `CO[C@H]1CC[C@H](CC(C)(C)NC[C@H](O)c2cccc(F)c2)CC1` [Example 15, (R)-1-(3-Fluorophenyl)-2-((1-((1r,4R)-4-methoxycyclohexyl)-2-methyl-propan-2-yl)amino)ethan-1-ol] are “+ + +” and less than 25%.
In the case of `CC(=O)N[C@H]1CC[C@H](C(C)(C)NC[C@H](O)c2cncc(F)c2)CC1` [Example 81, N-((1R,4r)-4-(2-(((R)-2-(5-Fluoropyridin-3-yl)-2-hydroxyethyl)amino)-propan-2-yl)cyclohexyl)acetamide], the “Biological example 1: glucose uptake, activity compared to that of isoproterenol” value in the experiment with L6-myotubes [1] was “+ + +”. Besides, the Emax at 10 µM in the experiment on L6-myotubes [2] is less than 25%.
The corresponding values for `CC(C)(C[C@H]1CC[C@H](NS(=O)(=O)C(F)(F)F)CC1)NC[C@H](O)c1cccc(F)c1` [Example 160, 1,1,1-Trifluoro-N-((1R,4r)-4-(2-(((R)-2-(3-fluorophenyl)-2-hydroxyethyl)-amino)-2-methylpropyl)cyclohexyl)methanesulfonamide hydrochloride] are “+ + +” and less than 25%.
Regarding `O[C@@H](CNCCC[C@H]1CC[C@H](O)CC1)c1cncc(F)c1` [Example 58, (1S,4r)-4-(3-(((R)-2-(5-Fluoropyridin-3-yl)-2-hydroxyethyl)amino)-propyl)cyclohexan-1-ol], the Emax at 10 µM in the experiment with L6-myotubes [1] is 25 to 50%; with L6-myotubes [2], less than 25%.
Turning to `CN(C)S(=O)(=O)[C@H]1CC[C@H](CC(C)(C)NC[C@H](O)c2cncc(F)c2)CC1` [Example 187, (1R,4r)-4-(2-(((R)-2-(5-Fluoropyridin-3-yl)-2-hydroxyethyl)amino)-2-methylpropyl)-N,N-dimethylcyclohexane-1-sulfonamide dihydrochloride], the “Biological example 1: glucose uptake, activity compared to that of isoproterenol” value in the experiment with L6-myotubes [1] is “+ + +”. Besides, the Emax at 10 µM in the experiment on L6-myotubes [2] is 25 to 50%.
Turning to `CO[C@H]1CC[C@@H](C(C)(C)NC[C@H](O)c2cncc(F)c2)CC1` [Example 6, (R)-1-(5-fluoropyridin-3-yl)-2-((2-((1s,4S)-4-methoxycyclohexyl)propan-2-yl)amino)ethan-1-ol], the Emax at 10 µM in the experiment with L6-myotubes [1] and with L6-myotubes [2] was less than 25% throughout.
Consider `CC(C)(NC[C@H](O)c1cccc(F)c1)[C@H]1CC[C@H](C(=O)O)CC1` [Example 101, (1R,4r)-4-(2-(((R)-2-(3-Fluorophenyl)-2-hydroxyethyl)amino)propan-2-yl)cyclohexane-1-carboxylic acid], for which the Emax at 10 µM in the experiment with L6-myotubes [1] and in the experiment with L6-myotubes [2] was less than 25% each time.
For `CN([C@H]1CC[C@H](CC(C)(C)NC[C@H](O)c2cncc(F)c2)CC1)S(C)(=O)=O.Cl` [Example 183, N-((1R,4r)-4-(2-(((R)-2-(5-Fluoropyridin-3-yl)-2-hydroxyethyl)amino)-2-methylpropyl)cyclohexyl)-N-methylmethanesulfonamide], in the experiment with L6-myotubes [1], the “Biological example 1: glucose uptake, activity compared to that of isoproterenol” value was “+ + +”. Also, the Emax at 10 µM in the experiment on L6-myotubes [2] is less than 25%.
As for `O[C@@H](CNCCC[C@H]1CC[C@@H](O)CC1)c1cccc(F)c1` [Example 59, (1R,4s)-4-(3-(((R)-2-(3-Fluorophenyl)-2-hydroxyethyl)amino)propyl)-cyclohexan-1-ol], the Emax at 10 µM is 25 to 50% in the experiment on L6-myotubes [1] and less than 25% in the experiment with L6-myotubes [2].
Regarding `COC(=O)[C@H]1CC[C@H](C(C)(C)NC[C@H](O)c2cncc(F)c2)CC1` [Example 100, Methyl (1R,4r)-4-(2-(((R)-2-(5-fluoropyridin-3-yl)-2-hydroxyethyl)amino)-propan-2-yl)cyclohexane-1-carboxylate], the “Biological example 1: glucose uptake, activity compared to that of isoproterenol” value in the experiment on L6-myotubes [1] is reported as “+ + +”. Moreover, the Emax at 10 µM with L6-myotubes [2] is less than 25%.
For the compound `CC(C)(C[C@H]1CC[C@@H](NS(C)(=O)=O)CC1)NC[C@H](O)c1cncc(F)c1` [Example 177, N-((1S,4s)-4-(2-(((R)-2-(5-Fluoropyridin-3-yl)-2-hydroxyethyl)amino)-2-methylpropyl)cyclohexyl)methanesulfonamide], in the experiment on L6-myotubes [1], the “Biological example 1: glucose uptake, activity compared to that of isoproterenol” value was “+ + +”. Also, the Emax at 10 µM in the experiment on L6-myotubes [2] is less than 25%.
With `CC(C)(NC[C@H](O)c1cccc(F)c1)[C@H]1CC[C@@H](OCC(=O)O)CC1` [Example 128, 2-(((1S,4s)-4-(2-(((R)-2-(3-Fluorophenyl)-2-hydroxyethyl)amino)propan-2-yl)cyclohexyl)oxy)acetic acid], the “Biological example 1: glucose uptake, activity compared to that of isoproterenol” value in the experiment with L6-myotubes [1] is “+ +”. Also, the Emax at 10 µM with L6-myotubes [2] is less than 25%.
With `CC(C)(C[C@H]1CC[C@@H](S(N)(=O)=O)CC1)NC[C@H](O)c1cncc(F)c1` [Example 197, (1S,4s)-4-(2-(((R)-2-(5-Fluoropyridin-3-yl)-2-hydroxyethyl)amino)-2-methylpropyl)cyclohexane-1-sulfonamide dihydrochloride], in the experiment with L6-myotubes [1], the “Biological example 1: glucose uptake, activity compared to that of isoproterenol” value is on record as “+ + +”. Further, in the experiment with L6-myotubes [2], the Emax at 10 µM is less than 25%.
The matching figures for `CC(C)(NC[C@H](O)c1cccc(F)c1)[C@H]1CC[C@@H](OCc2ccccc2)CC1` [Example 33, (R)-2-((2-((1s,4S)-4-(Benzyloxy)cyclohexyl)propan-2-yl)amino)-1-(3-fluorophenyl)ethan-1-ol]: “+ +” and less than 25%.
Take `CO[C@H]1CC[C@@H](C(C)(C)NC[C@H](O)c2cccc(F)c2)CC1` [Example 5, (R)-1-(3-Fluorophenyl)-2-((2-((1s,4S)-4-methoxycyclohexyl)propan-2-yl)-amino)ethan-1-ol]: the Emax at 10 µM in the experiment with L6-myotubes [1] and in the experiment with L6-myotubes [2] was less than 25% in each case.
Take `CC(C)(CC[C@H]1CC[C@@H](O)CC1)NC[C@H](O)c1ccccc1F` [Example 65, (1R,4s)-4-(3-(((R)-2-(2-Fluorophenyl)-2-hydroxyethyl)amino)-3-methyl-butyl)cyclohexan-1-ol]: in the experiment on L6-myotubes [1], the “Biological example 1: glucose uptake, activity compared to that of isoproterenol” value is on record as “+ + +”. The Emax at 10 µM with L6-myotubes [2] lay in the range of 25 to 50%.
The corresponding values for `CO[C@H]1CC[C@H](CNC[C@H](O)c2cncc(F)c2)CC1` [Example 4, (R)-1-(5-Fluoropyridin-3-yl)-2-((((1r,4R)-4-methoxycyclohexyl)-methyl)amino)ethan-1-ol] are “+ +” and less than 25%.
For `O[C@@H](CNCCC[C@H]1CC[C@H](O)CC1)c1cccc(F)c1` [Example 57, (1S,4r)-4-(3-(((R)-2-(3-Fluorophenyl)-2-hydroxyethyl)amino)propyl)-cyclohexan-1-ol], in the experiment with L6-myotubes [1], the “Biological example 1: glucose uptake, activity compared to that of isoproterenol” value is listed as “+ +”. For the same compound, the Emax at 10 µM with L6-myotubes [2] was less than 25%.

For the origin of these results see patent US20240390298A1, “CYCLOHEXYL BETA-HYDROXY ALKYL AMINES AND MEDICAL USES THEREOF” (ATROGI AB, priority 2021, published 2024).
